Measurements as given in US8920851B2, “Treatment of neurodegenerative diseases” (Velacor Therapeutics Pty Ltd, priority 2006, dated 2014).
Entries after “also recorded” stand apart in the source; their conditions may differ. Read-outs that look alike come from different tables or passages of the source.

Columns and labels:
GSK-3β = GSK-3β Ser9 phosphorylation by immunoblot in PC3 cells; format: cell-based, human; conditions: densitometry, sodium selenate 500 μM 3 h, LY294002 50 μM 1 h
Source text: The metabolic effects of insulin on glycogen synthesis are mediated by glycogen synthase kinase-3 (GSK-3), a direct downstream substrate of Akt. GSK-3 is a ubiquitously expressed serine/threonine kinase that phosphorylates and inactivates glycogen synthase. In response to activation of the insulin receptor, Akt phosphorylates and inactivates the repressor GSK-3, thereby stimulating glycogen synthesis [Cross et al., 1995]. […] Resolved whole cell lysates were subjected to immunoblot analysis with an antibody that specifically recognizes GSK-3β only when phosphorylated at Ser9, a site critical for its kinase activity, and comparison made with the cytoskeletal protein β-tubulin as a loading control.

[1] = system: PC3 prostate carcinoma cells; experiment: Intracellular redox state assay (DCFDA, flow cytometry)
Description: 1×10^6 PC3 prostate carcinoma cells were plated in 60 mm dishes, allowed to attach for 8 h, and serum starved overnight. Cells were incubated with DCFDA 5 μM for 15 min prior to treatment.
The proportion of fluorescent cells was then determined by flow cytometry.
Intracellular redox state was determined using 2′,7′-dichlorodihydrofluorescein diacetate (DCFDA). […] Cells were equilibrated with 5 μM of DCFDA for 15 min prior to various treatments. Adherent cells were then harvested, washed twice with PBS and the proportion of fluorescent cells determined immediately by flow cytometry.

[2] = biological target: T1, purified human PP2A A-C dimer (Homo sapiens, UniProt P67775); experiment: Free sulfhydryl groups in purified PP2A (Ellman's assay); format: biochemical; conditions: 0.01 U PP2A, 10 mM of each agent, 15 min at 37° C.
T1 construct: purified PP2A A-C dimer purified from human red blood cells; purchased Upstate 14-111 (lot #28002); host or cells: human red blood cells (native purification)
T1 sequence (P67775 whole entry): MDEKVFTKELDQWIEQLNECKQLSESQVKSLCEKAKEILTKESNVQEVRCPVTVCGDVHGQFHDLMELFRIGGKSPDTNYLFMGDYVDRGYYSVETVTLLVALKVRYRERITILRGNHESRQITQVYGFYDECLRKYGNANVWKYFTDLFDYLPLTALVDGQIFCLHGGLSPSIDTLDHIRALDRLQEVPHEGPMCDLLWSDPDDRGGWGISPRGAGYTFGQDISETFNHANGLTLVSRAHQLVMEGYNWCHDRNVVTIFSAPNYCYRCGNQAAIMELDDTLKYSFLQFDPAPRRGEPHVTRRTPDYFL
T1 sequence (P30153 2-589 partner limits assumed): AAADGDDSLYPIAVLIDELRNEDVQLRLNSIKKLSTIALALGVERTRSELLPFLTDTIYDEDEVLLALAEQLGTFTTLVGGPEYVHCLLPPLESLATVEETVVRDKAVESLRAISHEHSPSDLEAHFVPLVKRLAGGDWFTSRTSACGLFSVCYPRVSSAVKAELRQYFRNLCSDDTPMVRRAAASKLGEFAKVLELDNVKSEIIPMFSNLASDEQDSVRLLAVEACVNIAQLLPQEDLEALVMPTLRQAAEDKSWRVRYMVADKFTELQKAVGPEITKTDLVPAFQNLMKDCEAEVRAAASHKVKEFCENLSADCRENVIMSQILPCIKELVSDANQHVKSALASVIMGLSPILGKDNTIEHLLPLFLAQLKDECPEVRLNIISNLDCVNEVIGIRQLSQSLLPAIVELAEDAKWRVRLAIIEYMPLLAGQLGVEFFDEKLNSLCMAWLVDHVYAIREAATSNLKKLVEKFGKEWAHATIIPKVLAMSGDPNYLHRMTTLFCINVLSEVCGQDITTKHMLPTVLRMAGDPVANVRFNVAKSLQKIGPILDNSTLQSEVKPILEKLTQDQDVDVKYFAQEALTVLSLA
Source text: Inactivating reversible oxidation of protein phosphatases involves the modification of a critical cysteine residue within the catalytic domain, ultimately leading to the formation of either intramolecular disulphide or sulphenyl-amide bonds. […] Ellman's reagent (5,5′-Dithio-bis(2-nitrobenzoic acid), DTNB) rapidly forms a disulphide bond with free sulfhydryl groups with the release of chromogenic thiolate ions. […] The quantity of free sulfhydryl groups present within the phosphatase was then determined by the addition of Ellman's reagent and subsequent measurement of absorbance at 412 nm (FIG. 5C).
The change in free sulfhydryl groups in purified PP2A following various treatments was determined using Ellman's Reagent. To 0.01 U of PP2A was added to 37.5 μl of dilution buffer (30 mM Tris-HCl, 3 mM EDTA, pH 8.2), 12.5 μl DTNB reagent (Ellman's reagent) and 200 μl of methanol. Samples were incubated for 5 min at RT, and then extinction measured in duplicate for each at 412 nm.

Akt = Akt phosphorylation by immunoblot in PC3 prostate carcinoma cells; format: cell-based, human; conditions: for effect of hydrogen peroxide on sodium selenate induced reduction of Akt phosphorylation: sodium selenate 500 μM; for Akt activation: ratio of phosphorylated Akt to total Akt versus control: serum starved PC3 cells, 500 μM, 1 hour, densitometry
Description: Such dephosphorylation may be the result of a direct inhibitory effect on the Akt protein itself, or alternatively, can be similarly achieved indirectly by boosting a negative regulator or inhibiting a positive regulator of Akt phosphorylation. […] PC3 prostate carcinoma cells were plated in 100 mm dishes, and when 70-80% confluent serum starved overnight. […] Cells were lysed, and the level of Akt Ser473 phosphorylation determined by immunoblot analysis with an activation specific antibody, and comparison made to levels of Akt protein expressed. To determine the effect on purified Akt, similarly plated but untreated PC3 cells were lysed in RIPA (minus phosphatase inhibitors), a stringent cell lysis buffer that minimizes maintenance of protein-protein complexes. […] The immunoprecipitated protein was then resolved and the level of activated Akt determined by immunoblot analysis as described above.
A reduction in net Akt activity could be achieved indirectly by either preventing the initial Akt phosphorylation, or alternatively, increasing Akt dephosphorylation [Kohn et. al. 1996]. […] Initially okadaic acid, a polyether toxin from red-tide algae (and causative agent of diarrhoetic shellfish poisoning) which inhibits the phospho-protein phosphatases PP1 and PP2A, two phosphatases implicated in the regulation of Akt dephosphorylation was used [Fernandez et al., 2002]. 5×10^5 PC3 prostate carcinoma cells were plated per well of a 6 well plate, allowed attach for 8 h, and then serum starved overnight. […] Lysed cells were resolved by SDS-PAGE, then probed for Akt phosphorylation at the Ser473 residue by immunoblot analysis with an antibody that specifically recognizes Akt when phosphorylated at this site, and comparison made with the total levels of Akt protein expressed (FIG. 2A).
This panel included tautamycin 500 nM (PP1), okadaic acid 500 nM (low dose PP2A>PP1), endothall A (PP2A) 100 μM, calyculin A 2 nM (low dose PP1>PP2A), calyculin A 10 nM (high dose inhibits PP1 and PP2A) and cyclosporine A 400 ng/ml (PP2B). […] Again, lysed cells were resolved by SDS-PAGE, then membranes probed for Akt phosphorylation at the Ser^473 residue by immunoblot analysis with an antibody that specifically recognizes Akt when phosphorylated at this site, and comparison made with the total levels of Akt protein expressed.
5×10^5 PC3 prostate carcinoma cells were plated per well in a 6-well plate, allowed to attach for 8 h, and then serum starved overnight. […] Equal amounts of whole cell lysates were resolved, and then subjected to immunoblot analysis to determine the level of phosphorylated Akt Ser^473. Comparison was then made with the total level of Akt protein expressed.
The phosphorylation status of Akt in whole cell lysates was determined using activation specific antibodies.
Other inorganic (sodium selenite, selenium dioxide, selenium sulphide and selenious acid) and organic (methylselenocysteine, selenocystine) selenium species were tested for their ability to affect Akt activation. All forms were dissolved in water with the exception of selenium sulphide which was solubilised in DMSO, and added to serum starved PC3 cells at a concentration of 500 μM for 1 hour, Whole cell lysates were then resolved, and the activation status of Akt determined by immunoblotting with an antibody that specifically recognizes Akt when phosphorylated at the Ser473 site, as well as the total level of Akt expression (pan Akt). To quantify the degree of Akt activation, immunoblots were digitalised, and the ratio of phosphorylated Akt to total Akt determined by densitometry.

PP2A = biological target: T2, PP2A (Homo sapiens, UniProt P67775); experiment: PP2A immunoprecipitation from treated PC3 cells and phosphatase assay; format: cell-based; conditions: PC3 cells treated 1 hour; sodium selenate 500 μM, endothall A 100 μM
T2 construct: the phosphatase activity of the general pool of intracellular PP2A; endogenous in cells; host or cells: PC3 prostate carcinoma cells
T2 sequence (P67775 whole entry): as the sequence (P67775 whole entry) above
T2 sequence (P30153 2-589 partner limits assumed): as the sequence (P30153 2-589 partner limits assumed) above
Description: Free phosphate was removed by passing cell lysates through desalting columns, and measured phosphatase activity using a phosphor-serine peptide and malachite green.
1×10^6 PC3 cells were plated in 60 mm plates and allowed attach for 8 h, then serum starved over night. Following various treatments as indicated, the media was aspirated and cells washed once with TBS. Cells were lysed in 0.3 ml of lysis buffer (20 mM Tris-HCl, pH 7.0, 1% Igepal-CA, 2 mM EDTA, 2 mM EGTA, 1× Complete Protease Inhibitor Cocktail) and phosphates removed by passing the lysate through a 2 ml Zeba Desalt Spin Column (Pierce #89890). Protein concentration of the desalted lysate was determined by the BCA assay as previously described. 100-150 μg of total protein was immunoprecipitated with 4 μg of anti-PP2A monoclonal antibody and 30 μl of Protein A-sepharose slurry at 4° C. for 2 h. Samples were then pelleted at 14,000 rpm for 1 min, washed three times in excess TBS and once with pNPP assay buffer. After the final spin all of the supernatant was carefully removed and 500 μM of phosphor-threonine peptide in a final volume of 80 μl added to the beads. Samples were incubated at 30° C. for 10 min with agitation, and the reaction terminated by the addition of malachite green solution. Absorbance was read at 590 nm for each sample in duplicate.

p70S6K = format: cell-based, human; conditions: PC3 cells; LY294002 50 μM 1 hour, sodium selenate 500 μM 1 hour, okadaic acid 500 nM
Description: 5×10^5 PC3 prostate carcinoma cells were plated per well of a 6-well plate, allowed to attach for 8 hours, then serum starved overnight. […] Equal amounts of whole cell lysates (75 μg) were resolved by SDS-PAGE, and the level of p70S6K phosphorylation determined by immunoblot analysis with an antibody that specifically recognizes the p70S6K protein when phosphorylated on Thr389. Comparison is made with the protein loading control β tubulin.

[3] = biological target: T3, human PP2A A-C heterodimer (Homo sapiens, UniProt P67775); format: biochemical
T3 construct: purified PP2A A-C dimer purified from human red blood cells; purchased Upstate 14-111 (lot #28002); host or cells: human red blood cells (native purification)
T3 sequence (P67775 whole entry): as the sequence (P67775 whole entry) above
T3 sequence (P30153 2-589 partner limits assumed): as the sequence (P30153 2-589 partner limits assumed) above
Description: In initial assays a chemical substrate of phosphatase enzymatic action, para-nitrophennylphosphate (pNPP) was used, which following hydrolysis of the phosphate moiety generates para-nitrophenol, an intensely yellow chromogen which is soluble under alkaline conditions. […] Absorbance of each sample was measured in duplicate at 405 nm with 590 nm as a reference. PP2A activity was calculated using the following equation: activity=(sample vol in liters)×A405/1.78×104M^−1 cm^−1 (extinction coefficient)×0.25 cm×15 minutes×0.05 U enzyme Data is presented as mean relative phosphatase activity ±SEM from at least three independent experiments.
Para-nitrophennylphosphate (PNPP) is a chemical substrate of phosphatase enzymes, which following hydrolysis of the phosphate moiety generates para-nitrophenol, an intensely yellow chromogen, soluble under alkaline conditions. In assays measuring relative phosphatase activity, 0.05 U of purified PP2A was mixed with 5 μl of 40 mM NiCl2 and 5 μl of BSA solution (5 mg/ml) in a microcentrifuge tube. Various treatments were added as indicated, and the volume adjusted to 80 μl with pNPP assay buffer. Samples were pre-incubated at 37° C. for 15 min. pNPP substrate was freshly prepared before each assay by dissolving 1.5 mg/ml pNPP in 50 mM Tris-HCl, pH 7.0. To start the phosphatase reaction, 120 μl of pNPP substrate was added, and samples incubated for a further 15 min at 37° C. Absorbance of each sample was measured in duplicate at 405 nm with 590 nm as a reference. PP2A activity was calculated using the following equation: activity=(Sample volume in liters)×A405/1.78×10^4M^−1cm^−1 (Extinction coefficient)×0.25 cm×15 min×0.05 U enzyme.

PP2A A-C dimer = biological target: T4, PP2A A-C dimer (Homo sapiens, UniProt P67775); experiment: Phosphopeptide / malachite green assay with purified PP2A; format: biochemical; conditions: 50 μM of each selenium compound
T4 construct: purified PP2A A-C dimer purified from human red blood cells; purchased Upstate 14-111 (lot #28002); host or cells: human red blood cells (native purification)
T4 sequence (P67775 whole entry): as the sequence (P67775 whole entry) above
T4 sequence (P30153 2-589 partner limits assumed): as the sequence (P30153 2-589 partner limits assumed) above
Description: The amount of inorganic phosphate released by enzymatic activity was determined by the addition of malachite green, and absorbance read at 590 nm. Malachite green forms a stable green complex in the presence of molybdate and orthophosphate, allowing the concentration of inorganic phosphate present to be measured. Data is presented as mean absorbance at 590 nm from at least three independent experiments, ±SEM.
1 mg of synthetic phosphopeptides K-R-pT-I-R-R (Upstate #12-219) and R-R-A-pS-V-A (Upstate #12-220) were dissolved in 1.10-1.285 ml of dH2O to prepare a 1 mM solution, then aliquoted and stored at −20° C. until use. 0.01-0.05 U of purified PP2A A-C dimer purified from human red blood cells, or 0.05 U of rabbit PP1 purified from skeletal muscle was mixed with 500 μM of phosphopeptide and incubated in the presence of various treatments as indicated at 37° C. on a heating block for 15 min. Each reaction was made up to a total volume of 25 μl with pNPP buffer (50 mM Tris-HCl, pH 7.0, 100 μM CaCl2). The enzyme reaction was terminated by adding 100 μl of malachite green solution (0.034% malachite green in 10 mM ammonium molybdate, 1 N HCl, 3.4% ethanol, 0.01% Tween-20). Malachite green forms a stable green complex in the presence of molybdate and orthophosphate, allowing the amount of inorganic phosphate present to be measured. Absorbance was read in duplicate for each sample at 590 nm.

O=c1cc(N2CCOCC2)oc2c(-c3ccccc3)cccc12 [LY294002, reference compound]
reduction of GSK-3β phosphorylation levels (GSK-3β): ~60%

CC(=O)N[C@@H](CS)C(=O)O [NAC, N-acetylcysteine]
basal proportion of fluorescent cells (ROS) ([1]; 1 h, sodium selenate 500 μM, NAC 1 mM): small reduction in the basal proportion of fluorescent cells

CCN1C(=O)C=CC1=O [NEM, N-ethylmaleimide, reference compound]
number of free sulfhydryl groups in PP2A [2]: significantly reduced the number of free sulfhydryl groups

O=C(O)[C@@H]1[C@H](C(=O)O)[C@H]2CC[C@@H]1O2 [endothall A, reference compound]
effect of PPP inhibitor pretreatment on sodium selenate induced Akt Ser473 dephosphorylation (Akt): completely blocked sodium selenate induced Akt dephosphorylation | phosphatase activity of immunoprecipitated PP2A (general intracellular pool) (PP2A): significantly reduced phosphatase activity

OO [hydrogen peroxide]
generation of intracellular oxygen free radicals ([1]; hydrogen peroxide 500 μM, 10 min): marked increase in the generation of intracellular oxygen free radicals | effect of hydrogen peroxide on sodium selenate induced reduction of Akt phosphorylation (Akt; PC3 cells, hydrogen peroxide 0.25 mM for 10 min): unaffected | effect of hydrogen peroxide on sodium selenate induced reduction of Akt phosphorylation (Akt; PC3 cells, hydrogen peroxide 1 mM for 10 min): completely abolished the dephosphorylating effect of sodium selenate | number of free sulfhydryl groups in PP2A [2]: significantly reduced the number of free sulfhydryl groups

C=C1[C@@H](O)[C@@H]2O[C@]3(CC[C@H](/C=C/[C@@H](C)[C@@H]4CC(C)=C[C@@]5(O[C@H](C[C@@](C)(O)C(=O)O)CC[C@H]5O)O4)O3)CC[C@H]2O[C@@H]1[C@@H](O)C[C@H](C)[C@H]1O[C@@]2(CCCCO2)CC[C@H]1C [okadaic acid]
p70S6K phosphorylation on Thr389 (p70S6K): boosts the level of phosphorylation observed | effect of PPP inhibitor pretreatment on sodium selenate induced Akt Ser473 dephosphorylation (Akt; PC3 cells, inhibitor 30 min (okadaic acid 500 nM, endothall A 100 μM, tautamycin 500 nM, calyculin A 2 nM, cyclosporine A 400 ng/ml), then sodium selenate 500 μM 1 h): completely blocked sodium selenate induced Akt dephosphorylation | effect of pretreatment on the sodium selenate induced reduction of Akt phosphorylation (Akt; PC3 cells, okadaic acid 5 nM 30 min, then sodium selenate 500 μM 1 h): unaffected | Akt Ser473 phosphorylation in non-selenate controls (Akt; PC3 cells, okadaic acid 1000 nM): boosts Akt phosphorylation in non-selenate controls | effect of pretreatment on the sodium selenate induced reduction of Akt phosphorylation (Akt; PC3 cells, okadaic acid 1000 nM 30 min, then sodium selenate 500 μM 1 h): completely abolishes the inhibitory effect of sodium selenate | PP2A phosphatase activity (pNPP) ([3]; 0.05 U PP2A dimer, 30 min at 37° C., sodium selenate 5 mM, okadaic acid 500 nM): completely abolished

O=[Se]=O [selenium dioxide]
Akt activation: ratio of phosphorylated Akt to total Akt versus control (Akt): induce activation of Akt above control (con) levels

S=[Se]=S [selenium sulfide]
Akt activation: ratio of phosphorylated Akt to total Akt versus control (Akt): induce activation of Akt above control (con) levels

N[C@@H](C[SeH])C(=O)O [selenocysteine]
Akt activation: ratio of phosphorylated Akt to total Akt versus control (Akt): induce activation of Akt above control (con) levels

C[Se]CC[C@H](N)C(=O)O [selenomethionine, reference compound]
Akt phosphorylation at Ser473 (Akt; PC3 cells, 500 μM of each compound, various timepoints): did not affect the level of Akt phosphorylation; also recorded: did not affect the level of phosphorylation of Akt | PP2A phosphatase activity, pNPP as substrate ([3]; 5 mM of each selenium compound): neither sodium selenite nor selenomethionine significantly affected PP2A phosphatase activity | PP2A phosphatase activity, serine phosphopeptide as substrate (PP2A A-C dimer): neither sodium selenite nor selenomethionine significantly affected PP2A phosphatase activity

O=[Se](O)O [selenous acid]
Akt activation: ratio of phosphorylated Akt to total Akt versus control (Akt): induce activation of Akt above control (con) levels
